Assay results taken from ChEMBL document CHEMBL5247598 (Eur J Med Chem, 2022).
Calls of active or inactive are those of the source. The rule behind the calls is not given here.

Columns and labels:
MCF7 [1] = experiment: Antiproliferative activity against human MCF7 cells assessed as reduction in cell viability incubated for 48 hrs by MTT assay; format: functional, cell-based; conditions: MCF7, 48 h
NCI/ADR-RES [2] = experiment: Antiproliferative activity against human multidrug resistant NCI-ADR-RES cells overexpressing P-gp assessed as reduction in cell viability incubated for 48 hrs by MTT assay; format: functional, cell-based
[3] = Cytotoxicity against human HEK293T cells assessed as reduction in cell viability incubated for 48 hrs by MTT assay; format: toxicity, cell-based, HEK-293T
MCF7 [4] = experiment: Antiproliferative activity against human MCF7 cells assessed as inhibition of cell growth at 50 uM incubated for 48 hrs by MTT assay; format: functional, cell-based
NCI/ADR-RES [5] = experiment: Antiproliferative activity against human multidrug resistant NCI-ADR-RES cells assessed as inhibition of cell growth at 50 uM incubated for 48 hrs by MTT assay; format: functional, cell-based
A549 = experiment: Antiproliferative activity against human A549 cells assessed as inhibition of cell growth at 50 uM incubated for 48 hrs by MTT assay; format: functional, cell-based
A549/TR = experiment: Antiproliferative activity against human Taxol resistant A549 cells assessed as inhibition of cell growth at 50 uM incubated for 48 hrs by MTT assay; format: functional, cell-based
HCT-8 [6] = experiment: Antiproliferative activity against human HCT-8 cells assessed as inhibition of cell growth at 50 uM incubated for 48 hrs by MTT assay; format: functional, cell-based
HCT-8 [7] = experiment: Antiproliferative activity against human Taxol resistant HCT-8 cells assessed as inhibition of cell growth at 50 uM incubated for 48 hrs by MTT assay; format: functional, cell-based
NCI/ADR-RES [8] = experiment: Reversal of P-gp-mediated multidrug resistance in human NCI-ADR-RES cells assessed as potentiation of doxorubicin-induced cytotoxicity incubated for 48 hrs by MTT assay; format: functional, cell-based
NCI/ADR-RES [9] = experiment: Reversal fold, ratio of doxorubicin IC50 to doxorubicin IC50 in presence of 10 uM test compound for reversal of P-gp-mediated multidrug resistance in human NCI-ADR-RES cells incubated for 48 hrs by MTT assay; format: functional
HEK-293T [10] = experiment: Cytotoxicity against human HEK293T cells assessed as cell survival rate at 10 uM incubated for 48 hrs by MTT assay; format: toxicity, cell-based
HEK-293T [11] = experiment: Cytotoxicity against human HEK293T cells assessed as inhibition of cell growth at 50 uM incubated for 48 hrs by MTT assay; format: toxicity, cell-based
[12] = Cytotoxicity against mouse MPC-5 cells assessed as inhibition of cell growth at 50 uM incubated for 48 hrs by MTT assay; format: toxicity, cell-based; conditions: mpc-5, 48 h
L02 = experiment: Cytotoxicity against human L02 cells assessed as inhibition of cell growth at 50 uM incubated for 48 hrs by MTT assay; format: toxicity, cell-based; conditions: l02, 48 h
P-gp = experiment: Therapeutic index, ratio of IC50 for cytotoxicity against human HEK293T cells to EC50 for reversal of P-gp-mediated multidrug resistance in human NCI-ADR-RES cells; format: toxicity, cell-based; conditions: read-out: Ratio IC50/EC50

SMILES	IC50 (NCI/ADR-RES [2])	IC50 at 48 h [3]	IC50 (MCF7 [1]; read-out: IC50)	Ratio IC50 (NCI/ADR-RES [9])	also measured
COc1ccc(CCN(C)CCCC(C#N)(c2ccc(OC)c(OC)c2)C(C)C)cc1OC (stereo unspecified)	> 100 µM	32 µM	–	–	IC50 (MCF7 [1]): 87.8 µM; Activity (MCF7 [4]): inactive; Activity (NCI/ADR-RES [5]): inactive; Activity (A549): inactive; Activity (A549/TR): inactive; Activity (HCT-8 [6]): inactive; Activity (HCT-8 [7]): inactive; EC50 (NCI/ADR-RES [8]): 0.322 µM
C=C1[C@H](O)[C@@H](O)[C@@H](O)C(C)(C)/C=C/[C@H](C)[C@H](OC(=O)c2ccccc2)[C@@]2(O)C[C@@](C)(O)[C@H](OC(C)=O)[C@@H]2[C@H]1OCC(C)C	> 100 µM	> 100 µM	> 100 µM	–	–
C=C1[C@H](OC(C)=O)[C@@H](OC(=O)C(C)(C)C)[C@@H](OC(C)=O)C(C)(C)/C=C/[C@H](C)[C@H]2O[C@]3(C)C[C@@]2(OC(=O)c2ccccc2)[C@H]([C@H]3OC(C)=O)[C@H]1OCC(C)C	> 100 µM	> 100 µM	> 100 µM	21.3	–
C=C1[C@H](OC(C)=O)[C@@H](OC(C)=O)[C@@H](OC(C)=O)C(C)(C)/C=C/[C@H](C)[C@H]2O[C@]3(C)C[C@@]2(OC(=O)c2ccccc2)[C@H]([C@H]3OC(C)=O)[C@H]1OCC(C)C	> 100 µM	13.5 µM	> 100 µM	34.3	–
C=C1[C@H](O)[C@@H](OC(=O)c2cccc(C)c2)[C@@H](O)C(C)(C)/C=C/[C@H](C)[C@H](OC(=O)c2ccccc2)[C@@]2(O)C[C@@](C)(O)[C@H](OC(C)=O)[C@@H]2[C@H]1OCC(C)C	75.2 µM	31.3 µM	63.8 µM	7.66	–
C=C1[C@H](OC(C)=O)[C@@H](OC(=O)c2cccc(C)c2)[C@@H](OC(C)=O)C(C)(C)/C=C/[C@H](C)[C@H](OC(=O)c2ccccc2)[C@@]2(O)C[C@@](C)(O)[C@H](OC(C)=O)[C@@H]2[C@H]1OCC(C)C	> 100 µM	4.11 µM	23.4 µM	59.71	–
COc1cc2c(cc1OC)CN(CCc1ccc(NC(=O)c3cc(OC)c(OC)cc3NC(=O)c3cnc4ccccc4c3)cc1)CC2	98.5 µM	5.22 µM	8.11 µM	47.2	Activity (HEK-293T [10]): Toxic; Activity (MCF7 [4]): Active; Activity (NCI/ADR-RES [5]): Active; Activity (A549): Active; Activity (A549/TR): Active; Activity (HCT-8 [6]): Active; Activity (HCT-8 [7]): Active; Activity (HEK-293T [11]): Toxic; Activity [12]: Toxic; Activity (L02): Toxic; EC50 (NCI/ADR-RES [8]): 0.0187 µM; selectivity ratio (P-gp): 278
C=C1[C@H](OC(C)=O)[C@@H](OC(C)=O)[C@@H](OC(C)=O)C(C)(C)/C=C/[C@H](C)[C@H](OC(=O)c2ccccc2)[C@@]2(O)C[C@@](C)(OC(=O)c3ccncc3)[C@H](OC(C)=O)[C@@H]2[C@H]1OCC(C)C	> 100 µM	19.5 µM	> 100 µM	89.33	–
C=C1[C@H](OC(C)=O)[C@@H](OC(=O)c2cccc(C)c2)[C@@H](OC(C)=O)C(C)(C)/C=C/[C@H](C)[C@H](OC(=O)c2ccccc2)[C@@]2(O)C[C@@](C)(OC(C)=O)[C@H](OC(C)=O)[C@@H]2[C@H]1OCC(C)C	> 100 µM	7.6 µM	> 100 µM	30.48	–
C=C1[C@H](OCC(C)C)[C@@H](OC(C)=O)[C@@H](OC(C)=O)C(C)(C)[C@@H]2O[C@H]2[C@H](C)[C@H](OC(=O)c2ccccc2)[C@@]2(O)C[C@@](C)(OC(C)=O)[C@H](OC(C)=O)[C@@H]2[C@H]1OCC(C)C	> 100 µM	48.1 µM	> 100 µM	52.31	–
C=C1[C@H](OC(C)=O)[C@@H](OC(C)=O)[C@@H](OC(C)=O)C(C)(C)/C=C/[C@H](C)[C@H](OC(=O)c2ccccc2)[C@@]2(O)C[C@@](C)(O)[C@H](OC(C)=O)[C@@H]2[C@H]1OCC(C)C	> 100 µM	39.3 µM	> 100 µM	4.49	–
